This is an account of results in patent publication US20080220084A1, “COMBINATION THERAPY FOR ALLEVIATING PAIN-RELATED CONDITIONS” (Pfantastic Medical Research Institute, LLC, priority 2007, published 2008).

For the experiment, the system named is chronic low back pain. Nature of the experiment: Treatment of low back pain (herniated disc, lumbar spinal canal stenosis), single-subject case. The format is in vivo, human. The following applies: person, before the composition.

Source text: The acute pain was managed by a combination of pain killer medication and a series of physical therapies at that time. However, chronic low back pain remained ever since. […] The patient was also subjected to a series of disc decompression treatments (20 treatment sessions).
No medication and other treatment were applied prior to taking the composition of the present invention. Two pills (0.5 g each) of the composition of the present invention were taken by the patient every morning and at night (twice a day). Each pill was composed of Rhizoma Gastrodiae Elatae (˜30-60 mg), dry powder of Manitis (˜70-105 mg), dry powder of Agkistrodon seu Bungarus (˜25-40 mg), roots of Radix Aconiti Lateralis Preparata (˜50-90 mg) and Radix Paeoniae Lactiflorae (˜50-90 mg), Herba Asari cum Radice (˜25-40 mg), Cornu cervi Parvum (˜70-100 mg), Eupolyphaga seu Opisthoplatia (˜25-45 mg), and Sulindac (30 mg). Total daily dosage of Sulindac was 120 mg, which is lower than recommended dosage (400 mg/day). Sulindac is a NSAID for the treatment of arthritis, but not proposed for the treatment of sciatica nerve pain.

`Cc1ccc(-c2cc(C(F)(F)F)nn2-c2ccc(S(N)(=O)=O)cc2)cc1` [Celebrex]: the “pain reduction by earlier prescribed medication” value is recorded as “not effective in reducing the pain”.
